Reference: ChEMBL document CHEMBL1201862, “PubChem BioAssay data set” (2004)
The source made the active and inactive calls. For most assays here, no stated cut-off is given here; in the data, actives have a measured EC50 and inactives only a lower limit.

Assays:
[1] = Luminescence Cell-Based Dose Response HTS to Identify Inhibitors of 5'UTR Stem-Loop Driven Prion Protein mRNA Translation in H4 Neuroglioblastoma Cells. [Related pubchem assays: 1827 (Project Summary), 1813 (Primary HTS)]; type: functional
[2] = alpha-synuclein stem-loop luciferase translation blockers – H4 neuroglioma cells, luminescence, confirmation (AID 1988); type: functional, cell-based
[3] = luciferase reporter signal suppression in cells – H4 neuroglioma cells, luminescence, dose response (AID 1990); type: functional, cell-based
[4] = molecular target: Luciferin 4-monooxygenase (Photinus pyralis, UniProt P08659); assay: inhibition of purified Photinus pyralis luciferase – biochemical, luminescence, dose response (AID 1891)
Sequence of Luciferin 4-monooxygenase (P08659 whole entry): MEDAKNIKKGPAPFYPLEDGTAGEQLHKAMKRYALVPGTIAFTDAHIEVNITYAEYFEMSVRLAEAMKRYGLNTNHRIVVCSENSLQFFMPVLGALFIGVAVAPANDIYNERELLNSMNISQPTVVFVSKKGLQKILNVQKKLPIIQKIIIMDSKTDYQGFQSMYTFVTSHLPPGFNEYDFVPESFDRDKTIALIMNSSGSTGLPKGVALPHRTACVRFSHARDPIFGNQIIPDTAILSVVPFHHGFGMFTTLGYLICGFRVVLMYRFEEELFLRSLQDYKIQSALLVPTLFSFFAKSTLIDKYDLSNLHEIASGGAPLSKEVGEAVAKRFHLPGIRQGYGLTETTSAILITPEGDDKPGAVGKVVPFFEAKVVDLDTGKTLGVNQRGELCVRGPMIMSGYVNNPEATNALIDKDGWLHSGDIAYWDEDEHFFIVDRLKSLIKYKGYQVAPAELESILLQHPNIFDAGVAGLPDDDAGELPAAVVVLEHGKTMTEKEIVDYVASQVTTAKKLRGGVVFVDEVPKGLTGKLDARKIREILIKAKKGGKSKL

[5] = Luminescence Cell-Based Dose Confirmation HTS to Identify Inhibitors of Platelet Dense Granule Release. [Related pubchem assays: 1663 (Primary HTS), 1678 (Summary of Project)]; type: functional
[6] = fluconazole-exposed Candida albicans growth modulators – fluorescence, retest, confirmation (AID 2467); type: functional, cell-based
[7] = NIH-3T3 fibroblast cytotoxicity, dose response, cytotoxicity control, cell-based, fluorescence, Alamar Blue, secondary assay (AID 2327); type: functional;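 further: NIH-3T3 mouse fibroblasts cultured with fluconazole at 8 µg/mL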
[8] = Trypanosoma cruzi growth suppression in host cells – NIH3T3 host cells, beta-gal luminescence, confirmation (AID 2044); type: functional, cell-based;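 further: intracellular parasites grown in NIH/3T3 mouse fibroblasts as host cells; luminescent beta-galactosidase reporter signal from transgenic T. cruzi replicating inside host cells; inhibitors lower the luminescence signal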
[9] = NIH3T3 cell viability loss – ATP luminescence, mouse fibroblasts, counter-screen, dose response (AID 2010); type: functional, cell-based;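 further: cells exposed to compound for about 90 hours before reading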
Streptococcus = assay: GAS UMAA2166 growth inhibition – luminescence, BacTiterGlo, counter-screen for streptokinase expression inhibitor project, dose response (AID 1915); type: functional, organism-based;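 further: potency for reduction of bacterial viability or growth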
[10] = test system: Streptococcus sp. 'group A'; assay: Streptococcus pyogenes SK(-)GAS viability under kanamycin – luminescence, BacTiterGlo, confirmation, counter-screen for streptokinase expression inhibitor project, dose response (AID 1900); type: functional, organism-based
INS1 = assay: INS-1E survival protection against cytokine death – cell-based, luminescence, retest, dose response (AID 449756); type: functional; conditions: Rattus norvegicus;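 further: cell death triggered by IL-1 beta plus TNF-alpha plus IFN-gamma mixture; protective hits raise ATP signal compared with cytokine alone wells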

SMILES: O=C(Cn1cc2c(n1)CCCC2)NCc1cccc(Cl)c1
- EC50 [1]: > 120 µM (not active)
- EC50 [2]: > 120 µM (not active)
- EC50 [3]: > 120 µM (not active)

SMILES: COc1ccccc1C(=O)NCCC(=O)Nc1ncccc1O
- EC50 [4]: > 112 µM (not active)
- EC50 [5]: > 112 µM (not active)

SMILES: Cc1ccc(NC(=O)C2C(C(=O)O)C3C=CC2C32CC2)cc1 (stereo unspecified)
- EC50 [6]: > 38 µM (not active)
- EC50 [7]: 46.2 µM (active)

SMILES: Cn1cc(S(=O)(=O)N2CCOCC2)cc1C(=O)Nc1ccc(Cl)cc1
- EC50 [4]: > 112 µM (not active)
- EC50 [5]: > 112 µM (not active)

SMILES: COc1ccc(/C=C/CN2CCCC(CO)(Cc3cccc(Cl)c3)C2)cc1 (stereo unspecified)
- EC50 [4]: > 112 µM (not active)
- EC50 [5]: > 112 µM (not active)

SMILES: CCCCN(C)S(=O)(=O)c1ccc(C(=O)Nc2nnc(-c3cccs3)o2)cc1
- EC50 [8]: 1.09 µM (active)
- EC50 [9]: 8 µM (active)
- EC50 (Streptococcus): 3.65 µM (active)
- EC50 [6]: 0.861 µM (active)
- EC50 [7]: > 150 µM (inactive)
- EC50 [10]: 0.68 µM (active)

SMILES: COc1ccccc1N1CCN(C(=O)c2cc(-c3ccccc3O)on2)CC1
- EC50 [4]: > 112 µM (not active)
- EC50 [5]: > 112 µM (not active)

SMILES: CCOC(=O)c1ccc2nc(NC(=O)c3cccs3)sc2c1
- EC50 [4]: 0.729 µM (active)
- EC50 [5]: 10.7 µM (active)

SMILES: CCOC(=O)C1=C(C)OC(N)=C(C#N)C1C1CCCCC1 (stereo unspecified)
- EC50 [4]: > 112 µM (not active)
- EC50 [5]: > 112 µM (not active)

SMILES: CC1CCCCN1Cc1nc2c(c(=O)n(C)c(=O)n2C)n1CCc1ccccc1 (stereo unspecified)
- EC50 [4]: > 112 µM (not active)
- EC50 [5]: > 112 µM (not active)

SMILES: COc1ccc(CCNCc2ccc(OCC(=O)N3CCCCC3)c(OC)c2)cc1OC
- EC50 [4]: > 112 µM (not active)
- EC50 [8]: 0.133 µM (active)
- EC50 [9]: > 60 µM (inconclusive)
- EC50 [5]: 16.3 µM (active)

SMILES: O=C(O)c1ccc(COc2cccc(CO)c2)cc1
- EC50 [4]: 44.4 µM (active)
- EC50 [5]: 4.38 µM (active)

SMILES: COc1ccc(-c2cn3c([n+]2-c2ccccc2)CCCCC3)cc1
- AC50 (INS1): 2.58 µM (active)
- EC50 [6]: 2.53 µM (active)
- EC50 [7]: > 150 µM (inactive)

SMILES: Cc1ccc(C)c(N(CC(=O)Nc2ccccc2C(=O)NCc2ccco2)S(=O)(=O)c2ccccc2)c1
- EC50 [1]: > 120 µM (not active)
- EC50 [2]: > 120 µM (not active)
- EC50 [3]: 15.6 µM (active)

SMILES: COCCCNc1nc(N)c([N+](=O)[O-])c(NCc2ccccc2)n1
- EC50 [1]: > 120 µM (not active)
- EC50 [2]: 14.2 µM (active)
- EC50 [3]: 19.4 µM (active)

SMILES: Cc1cc(NC(=O)/C=C/c2cccc(Cl)c2)n(-c2nc3ccccc3[nH]2)n1
- EC50 [4]: > 112 µM (not active)
- EC50 [5]: 49.7 µM (active)

SMILES: Cc1cc(N)n2nc(-c3ccc(C(C)(C)C)cc3)cc2n1
- EC50 [4]: 0.401 µM (active)
- EC50 [5]: 2.35 µM (active)

SMILES: O=C(NCc1ccco1)c1ccc(-c2ccccc2Cl)o1
- EC50 [4]: > 112 µM (not active)
- EC50 [5]: > 112 µM (not active)

SMILES: CCc1nc(SCC(=O)Nc2cccc(C(F)(F)F)c2)c2c(=O)n(C)c(=O)n(C)c2n1
- EC50 [1]: 16.4 µM (active)
- EC50 [2]: 15.9 µM (active)
- EC50 [3]: 19.1 µM (active)

SMILES: Nc1nc(NCCc2ccccc2)nc(NCCO)c1[N+](=O)[O-]
- EC50 [1]: > 120 µM (not active)
- EC50 [2]: 39.1 µM (active)
- EC50 [3]: 19.1 µM (active)

SMILES: Cc1nc(O)nc(O)c1/C=N/NC(=O)CCNC(=O)OC(C)(C)C
- EC50 [4]: > 112 µM (not active)
- EC50 [5]: > 112 µM (not active)

SMILES: CCOc1cccc(-c2c(C(=O)N/N=C/c3ccc(C)s3)nnn2-c2nonc2N)c1
- EC50 [4]: > 112 µM (not active)
- EC50 [5]: > 112 µM (not active)
